Several values for one entry are separate records, joined by “and”; a condition that tells them apart may be missing. Identical values can stand only once. Entries after “also recorded” stand apart in the source; their conditions may differ. Counter-ions that a name gives are not always drawn. Blank lines part the entries; values can stand above or below the compound they belong to.
Experiments:
ABCG2 [1] = molecular target: T1, ABCG2 (Homo sapiens, UniProt Q9UNQ0); assay: JC-1 efflux inhibition dose-response, flow cytometry, Ig-MXP3 cells; format: cell-based
T1 sequence (Q9UNQ0 1-655): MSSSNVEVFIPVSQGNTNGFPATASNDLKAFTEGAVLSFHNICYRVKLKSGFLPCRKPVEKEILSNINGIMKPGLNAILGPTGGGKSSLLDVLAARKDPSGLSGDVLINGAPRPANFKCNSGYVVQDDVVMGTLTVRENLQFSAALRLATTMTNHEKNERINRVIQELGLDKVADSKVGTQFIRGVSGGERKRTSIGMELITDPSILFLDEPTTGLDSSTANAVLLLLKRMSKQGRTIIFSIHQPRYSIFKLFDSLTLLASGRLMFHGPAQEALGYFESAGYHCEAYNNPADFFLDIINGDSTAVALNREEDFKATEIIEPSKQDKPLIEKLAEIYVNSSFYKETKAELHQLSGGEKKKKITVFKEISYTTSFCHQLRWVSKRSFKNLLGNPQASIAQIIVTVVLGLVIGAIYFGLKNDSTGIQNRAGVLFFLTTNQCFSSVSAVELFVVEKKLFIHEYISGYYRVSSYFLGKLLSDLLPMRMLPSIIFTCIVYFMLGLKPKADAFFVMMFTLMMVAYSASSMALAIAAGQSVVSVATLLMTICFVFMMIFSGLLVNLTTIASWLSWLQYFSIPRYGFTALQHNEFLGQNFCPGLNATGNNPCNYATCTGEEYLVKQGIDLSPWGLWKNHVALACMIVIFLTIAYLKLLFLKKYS

Ig-MXP3 cells = assay: Direct cytotoxicity; format: cell-based
Igrov1/T8 derived tumors = assay: Preliminary in vivo study, ABCG2 resistant tumors, combination with topotecan; parameters: species or system CB-17 SCID mice; settings: for tumor size: intratumoral, daily, 0 to 96 hr, n = 3, p < 0.001
ABCB1 [2] = molecular target: T2, ABCB1 (Homo sapiens, UniProt P08183); assay: JC-1 efflux inhibition dose-response, flow cytometry, Jurkat-DNR cells
T2 sequence (P08183 whole entry): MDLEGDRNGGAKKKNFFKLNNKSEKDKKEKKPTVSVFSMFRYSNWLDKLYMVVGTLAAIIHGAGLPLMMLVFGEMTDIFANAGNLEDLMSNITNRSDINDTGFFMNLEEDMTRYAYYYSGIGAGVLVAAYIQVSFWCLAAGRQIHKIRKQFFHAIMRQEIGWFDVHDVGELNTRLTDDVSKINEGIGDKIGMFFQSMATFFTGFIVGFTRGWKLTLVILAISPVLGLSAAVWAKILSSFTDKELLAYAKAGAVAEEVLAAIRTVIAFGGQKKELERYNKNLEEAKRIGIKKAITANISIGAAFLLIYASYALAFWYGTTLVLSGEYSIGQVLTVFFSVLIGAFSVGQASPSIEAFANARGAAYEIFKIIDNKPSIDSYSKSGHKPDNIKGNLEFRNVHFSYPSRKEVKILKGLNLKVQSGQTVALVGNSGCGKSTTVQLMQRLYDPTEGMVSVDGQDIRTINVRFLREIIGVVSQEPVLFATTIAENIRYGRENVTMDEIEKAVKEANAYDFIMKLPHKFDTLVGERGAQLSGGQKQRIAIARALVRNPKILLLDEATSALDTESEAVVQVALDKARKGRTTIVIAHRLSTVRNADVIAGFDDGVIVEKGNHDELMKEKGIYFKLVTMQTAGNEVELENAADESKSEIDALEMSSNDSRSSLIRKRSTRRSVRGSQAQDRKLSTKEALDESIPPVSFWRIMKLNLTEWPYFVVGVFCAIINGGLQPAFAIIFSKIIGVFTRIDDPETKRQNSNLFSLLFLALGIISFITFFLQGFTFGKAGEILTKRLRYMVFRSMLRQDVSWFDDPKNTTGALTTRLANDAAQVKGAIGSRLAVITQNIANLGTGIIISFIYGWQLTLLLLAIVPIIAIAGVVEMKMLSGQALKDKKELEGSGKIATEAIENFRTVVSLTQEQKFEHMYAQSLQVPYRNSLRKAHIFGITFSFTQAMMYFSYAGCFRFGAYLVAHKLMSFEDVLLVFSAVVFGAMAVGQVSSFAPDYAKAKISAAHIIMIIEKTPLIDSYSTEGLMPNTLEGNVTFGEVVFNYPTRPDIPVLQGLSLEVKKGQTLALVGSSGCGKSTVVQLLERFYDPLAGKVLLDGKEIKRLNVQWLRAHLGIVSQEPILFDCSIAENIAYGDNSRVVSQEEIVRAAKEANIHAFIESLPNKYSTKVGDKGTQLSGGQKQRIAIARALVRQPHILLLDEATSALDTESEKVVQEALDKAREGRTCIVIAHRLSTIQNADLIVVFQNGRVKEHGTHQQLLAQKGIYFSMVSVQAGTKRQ

ABCG2 [3] = molecular target: T1, ABCG2; assay: Chemoreversal secondary assay
ABCB1 [4] = molecular target: T2, ABCB1; assay: Chemoreversal secondary assay
[5] = test system: non-resistant (ABCG2 non-expressing) parental tumor cells; assay: Topotecan killing of parental tumor cells; format: cell-based; settings: read-out: EC50 parental cells
[6] = test system: drug resistant (ABCG2 expressing) tumor cells; assay: Topotecan killing of drug resistant tumor cells; format: cell-based; settings: read-out: EC50 resistant cells

SMILES: O=C(c1ccoc1)N1CCN(c2cc(-c3ccco3)nc3cc(-c4ccccc4)nn23)CC1 [Compound 1]
higher potency in ABCG2 than Ko143 (ABCG2 [1]; JC-1 efflux reporter system): approximately 100 fold
∼Fold G2 Selective (ABCG2 [1]; quotient of average ABCB1 IC50 and average ABCG2 IC50, JC-1 efflux assay): 36 fold and 35.8 fold
EC50 (ABCG2 [1]; read-out: ABCG2 EC50, efflux assay, as worded): 0.13 µM
ABCG2 TD50 (Ig-MXP3 cells): 18.30 µM
tumor size (Igrov1/T8 derived tumors; 100 nM of 1 with 150 nM TPT): dramatically reduced tumor size; also recorded: Significant tumor reduction
ABCB1 TD50 (Jurkat-DNR cells): 5.52 µM
EC50 (ABCB1 [2]; read-out: ABCB1 EC50, efflux assay, as worded): 4.65 µM

IC50 (ABCG2 [1]): > 50 µM
IC50 (ABCB1 [2]): > 50 µM
EC50 (ABCG2 [3]): 57.4 µM
EC50 (ABCB1 [4]): 20.4 µM
SMILES: CN(C)C(=O)CCSC(SCCC(=O)O)c1cccc(/C=C/c2ccc3ccc(Cl)cc3n2)c1 (stereo not drawn) [Compound 5, MK571, reference compound]

SMILES: Cc1nc2cc(-c3cccc(F)c3)nn2c(N2CCN(C(=O)c3ccco3)CC2)c1C [Compound 7]
tumor size (Igrov1/T8 derived tumors; 500 nM of 7 with 150 nM TPT): dramatically reduced tumor size; also recorded: Significant tumor reduction

SMILES: CC[C@@]1(O)C(=O)OCc2c1cc1n(c2=O)Cc2cc3c(CN(C)C)c(O)ccc3nc2-1 [TPT, topotecan hydrochloride hydrate]
growth of tumors (Igrov1/T8 derived tumors; 150 nM TPT alone, intratumoral (data not shown)): did not affect the growth of tumors
EC50 [5]: 0.007 µM
EC50 [6]: 0.311 µM

Source: article PMC3623016 (Journal of biomolecular screening, 2012)
